Source: patent US20240082296A1, “TREATMENT OF MUSCLE ATROPHY USING DEXTRAN SULFATE” (TX MEDIC AB, priority 2020, published 2024)
Marks after values point to notes of the source that are not given here.

Tested on: severe traumatic brain injury (sTBI) in rats
Assay: HPLC of free amino acids and amino group containing compounds in rat brain after sTBI (Example 4)
Format: in vivo
Procedure: The effects of daily sub-cutaneous injections of dextran sulfate on glutamate excitotoxicity and mitochondrial function after severe traumatic brain injury (sTBI) in rats were evaluated by high-performance liquid chromatography (HPLC) analysis of frozen brain samples.
The experimental protocol used in this study was approved by the Ethical Committee of the Catholic University of Rome, according to international standards and guidelines for animal care. Male Wistar rats of 300-350 g body weight (b.w.) were fed with standard laboratory diet and water ad libitum in a controlled environment.
They were divided into three groups: • 1) n=6 animals subjected to sTBI, with drug administration after 30 minutes and sacrifice at 2 days post-TBI (Acute phase 1) • 2) n=6 animals subjected to severe-TBI, with drug administration after 30 minutes and sacrifice at 7 days post-TBI (Acute phase 2). • 3) n=6 animals subjected to severe-TBI, with drug administration after 3 days and sacrifice at 7 days post-TBI (Chronic phase).
As the anesthetic mixture, animals received 35 mg/kg b.w. ketamine and 0.25 mg/kg b.w. midazolam by i.p. injection. sTBI was induced by dropping a 450 g weight from 2 m height on to the rat head that had been protected by a metal disk previously fixed on the skull, according to the “weight drop” impact acceleration model (Marmarou et al., A new model of diffuse brain injury in rats. Part I: Pathophysiology and biomechanics. J Neurosurg. 1994; 80: 291-300). […] At the end of each period of treatment, rats were anesthetized again and then immediately sacrificed.
The drug treatment was a subcutaneous injection of 0.5 ml of dextran sulfate (Tikomed AB, Viken, Sweden, WO 2016/076780; 15 mg/kg) and administered according to the aforementioned schematic protocol.
An in vivo craniectomy was performed in all animals during anesthesia, after carefully removing the rat's skull, the brain was exposed and removed with a surgical spatula and quickly dropped in liquid nitrogen. After the wet weight (w.w.) determination, tissue preparation was affected as previously disclosed (Tavazzi et al., Cerebral oxidative stress and depression of energy metabolism correlate with severity of diffuse brain injury in rats. Neurosurgery. 2005; 56: 582-589; Vagnozzi et al., Temporal window of metabolic brain vulnerability to concussions: mitochondrial-related impairment-part I. Neurosurgery. 2007; 61: 379-388; Tavazzi et al., Temporal window of metabolic brain vulnerability to concussions: oxidative and nitrosative stresses-part II. Neurosurgery. 2007; 61: 390-395; Amorini et al., Severity of experimental traumatic brain injury modulates changes in concentrations of cerebral free amino acids. J Cell Mol Med. 2017; 21: 530-542.). Briefly, whole brain homogenization was performed with 7 ml of ice-cold, nitrogen-saturated, precipitating solution composed by CH3CN+10 mM KH2PO4, pH 7.40, (3:1; v:v), and using an Ultra-Turrax set at 24,000 rpm/min (Janke & Kunkel, Staufen, Germany). After centrifugation at 20,690×g, for 10 min at 4° C., the clear supernatants were saved, pellets were supplemented with 3 ml of the precipitating solution and homogenized again as described above. A second centrifugation was performed (20,690×g, for 10 min at 4° C.), pellets were saved, supernatants combined with those previously obtained, extracted by vigorous agitation with a double volume of HPLC-grade CHCl3 and centrifuged as above. The upper aqueous phases containing water-soluble low-molecular weight compounds were collected, subjected to chloroform washings for two more times (this procedure allowed the removal of all the organic solvent and of any lipid soluble compound from the buffered tissue extracts), adjusted in volumes with 10 mM KH2PO4, pH 7.40, to have ultimately aqueous 10% tissue homogenates and saved at −80° C. until assayed. […]

[1] = Acute phase 1 (15 mg/kg s.c. 30 min after sTBI, sacrifice 2 days post-TBI)
[2] = Acute phase 2 (15 mg/kg s.c. 30 min after sTBI, sacrifice 7 days post-TBI)
[3] = Chronic phase (15 mg/kg s.c. 3 days after sTBI, sacrifice 7 days post-TBI)

dextran sulfate was tested, and the “cerebral ALA concentration” value [1] was 0.50 ± 0.12^a μmol/g (w.w.), the “cerebral ARG concentration” value [1] was 0.13 ± 0.02^b,d μmol/g (w.w.) and the “cerebral ASN concentration” value [1] was 0.12 ± 0.02^i μmol/g (w.w.). For the same substance, the “cerebral ASP concentration” value [1] was 2.40 ± 0.56^d,i μmol/g (w.w.), the “cerebral CITR concentration” value [1] was 0.018 ± 0.004 µmol/g (w.w.) and the “cerebral GABA concentration” value [1] was 1.43 ± 0.25^a μmol/g (w.w.). The “cerebral GLN concentration” value [1] was 4.78 ± 1.09^a μmol/g (w.w.), the “cerebral GLU concentration” value [1] was 9.81 ± 1.66^i μmol/g (w.w.) and the “cerebral GLY concentration” value [1] was 0.83 ± 0.25^a,c μmol/g (w.w.). For the same substance, the “cerebral HIS concentration” value [1] was 0.068 ± 0.015^b μmol/g (w.w.), the “cerebral ILE concentration” value [1] was 0.038 ± 0.007 µmol/g (w.w.) and the “cerebral L-Cystat concentration” value [1] was 0.185 ± 0.031^b,c,i μmol/g (w.w.). The “cerebral LEU concentration” value [1] was 0.021 ± 0.005^a,c μmol/g (w.w.), the “cerebral LYS concentration” value [1] was 0.236 ± 0.057^b,d,h μmol/g (w.w.) and the “cerebral MET concentration” value [1] was 0.016 ± 0.005^d,j μmol/g (w.w.). The “cerebral ORN concentration” value [1] was 0.014 ± 0.007 µmol/g (w.w.), the “cerebral PHE concentration” value [1] was 0.031 ± 0.011^b,d μmol/g (w.w.) and the “cerebral SAH concentration” value [1] was 0.033 ± 0.008^b,c,j μmol/g (w.w.). The “cerebral SER concentration” value [1] was 0.88 ± 0.25^a μmol/g (w.w.), the “cerebral TAU concentration” value [1] was 4.86 ± 0.85^b μmol/g (w.w.) and the “cerebral THR concentration” value [1] was 0.92 ± 0.29^a μmol/g (w.w.). The “cerebral TRP concentration” value [1] was 0.030 ± 0.007^b,dg,i μmol/g (w.w.), the “cerebral TYR concentration” value [1] was 0.15 ± 0.03 µmol/g (w.w.) and the “cerebral VAL concentration” value [1] was 0.042 ± 0.011 µmol/g (w.w.). For the same substance, the “cerebral ALA concentration” value [2] was 0.52 ± 0.24^a,e μmol/g (w.w.), the “cerebral ARG concentration” value [2] was 0.16 ± 0.03 µmol/g (w.w.) and the “cerebral ASN concentration” value [2] was 0.13 ± 0.03^i μmol/g (w.w.). The “cerebral ASP concentration” value [2] was 2.94 ± 0.98^f,j μmol/g (w.w.), the “cerebral CITR concentration” value [2] was 0.018 ± 0.008 µmol/g (w.w.) and the “cerebral GABA concentration” value [2] was 1.60 ± 0.24^a μmol/g (w.w.). For the same substance, the “cerebral GLN concentration” value [2] was 3.66 ± 0.41 µmol/g (w.w.), the “cerebral GLU concentration” value [2] was 9.93 ± 1.56^e,i μmol/g (w.w.) and the “cerebral GLY concentration” value [2] was 0.71 ± 0.16^f,i μmol/g (w.w.). For the same substance, the “cerebral HIS concentration” value [2] was 0.055 ± 0.019 µmol/g (w.w.), the “cerebral ILE concentration” value [2] was 0.048 ± 0.017^a μmol/g (w.w.) and the “cerebral L-Cystat concentration” value [2] was 0.173 ± 0.038^b,f,i μmol/g (w.w.). The “cerebral LEU concentration” value [2] was 0.018 ± 0.004 µmol/g (w.w.), the “cerebral LYS concentration” value [2] was 0.32 ± 0.04^a,e,i μmol/g (w.w.) and the “cerebral MET concentration” value [2] was 0.022 ± 0.006^b,e,i μmol/g (w.w.). For the same substance, the “cerebral ORN concentration” value [2] was 0.011 ± 0.005 µmol/g (w.w.), the “cerebral PHE concentration” value [2] was 0.028 ± 0.010 µmol/g (w.w.) and the “cerebral SAH concentration” value [2] was 0.026 ± 0.010^f,i μmol/g (w.w.). For the same substance, the “cerebral SER concentration” value [2] was 0.71 ± 0.28^b μmol/g (w.w.), the “cerebral TAU concentration” value [2] was 3.80 ± 1.19 µmol/g (w.w.) and the “cerebral THR concentration” value [2] was 0.66 ± 0.23 µmol/g (w.w.). The “cerebral TRP concentration” value [2] was 0.015 ± 0.006 µmol/g (w.w.), the “cerebral TYR concentration” value [2] was 0.172 ± 0.046^b,f μmol/g (w.w.) and the “cerebral VAL concentration” value [2] was 0.057 ± 0.017 µmol/g (w.w.). For the same substance, the “cerebral ALA concentration” value [3] was 0.57 ± 0.28^a,e μmol/g (w.w.), the “cerebral ARG concentration” value [3] was 0.14 ± 0.02 µmol/g (w.w.) and the “cerebral ASN concentration” value [3] was 0.18 ± 0.02^a μmol/g (w.w.). The “cerebral ASP concentration” value [3] was 4.46 ± 0.70^a,f μmol/g (w.w.), the “cerebral CITR concentration” value [3] was 0.020 ± 0.006 µmol/g (w.w.) and the “cerebral GABA concentration” value [3] was 1.85 ± 0.65^a μmol/g (w.w.). For the same substance, the “cerebral GLN concentration” value [3] was 3.98 ± 0.34 µmol/g (w.w.), the “cerebral GLU concentration” value [3] was 13.58 ± 1.28^a μmol/g (w.w.) and the “cerebral GLY concentration” value [3] was 1.05 ± 0.13^a,f μmol/g (w.w.). For the same substance, the “cerebral HIS concentration” value [3] was 0.047 ± 0.021 µmol/g (w.w.), the “cerebral ILE concentration” value [3] was 0.041 ± 0.016^b μmol/g (w.w.) and the “cerebral L-Cystat concentration” value [3] was 0.26 ± 0.05^a,f μmol/g (w.w.). For the same substance, the “cerebral LEU concentration” value [3] was 0.024 ± 0.032^b,f μmol/g (w.w.), the “cerebral LYS concentration” value [3] was 0.179 ± 0.036 µmol/g (w.w.) and the “cerebral MET concentration” value [3] was 0.009 ± 0.004^b μmol/g (w.w.). The “cerebral ORN concentration” value [3] was 0.017 ± 0.009^a,e μmol/g (w.w.), the “cerebral PHE concentration” value [3] was 0.033 ± 0.011^b μmol/g (w.w.) and the “cerebral SAH concentration” value [3] was 0.050 ± 0.013^a μmol/g (w.w.). For the same substance, the “cerebral SER concentration” value [3] was 0.93 ± 0.27^a,e μmol/g (w.w.), the “cerebral TAU concentration” value [3] was 4.49 ± 0.43^a μmol/g (w.w.) and the “cerebral THR concentration” value [3] was 0.75 ± 0.24^a,e μmol/g (w.w.). The “cerebral TRP concentration” value [3] was 0.012 ± 0.007 µmol/g (w.w.), the “cerebral TYR concentration” value [3] was 0.21 ± 0.05^f μmol/g (w.w.) and the “cerebral VAL concentration” value [3] was 0.040 ± 0.016^b μmol/g (w.w.). For the same substance, the “increase in cerebral glutamate (GLU) induced by sTBI” value (drug administered early post-injury (30 min following sTBI), 15 mg/kg s.c.) was “remarkable inhibition”, the “efficacy on glutamate excitotoxicity marker” value (drug injected at 3 days after sTBI) was “no efficacy” and the “compounds of the methyl cycle (Met, L-Cystat, SAH)” value (rat brain after sTBI, 15 mg/kg s.c.) was “significant beneficial effects”.
